Results reported in patent US20050112573A1, “Method of detecting toxic substance” (priority 2001, published 2005).

Tested on: yeast genes (level of expressed mRNA)
Assay: DNA chip analysis of expressed mRNA of yeast genes after 2 h culture with a toxic chemical substance
Assay type: cell-based, Saccharomyces cerevisiae S288C
Method in brief: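 Values are treated-to-control fluorescence ratios from a whole-yeast-genome DNA chip (65° C, over 12 h hybridization) using Cy3/Cy5-labelled cDNA from mRNA. Log-phase S288C cells in YPD at 25° C were exposed 2 h to a toxicant at sublethal, growth-inhibiting concentration.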

HgCl2 [(3)]
The level of expressed mRNA in the presence of chemical substance/ (yeast gene YKL086W, ratio to control without chemical): 2.4 | The level of expressed mRNA in the presence of chemical substance/The level of expressed mRNA in the absence of chemical substance (yeast gene YKL096W): 8.1 | The level of expressed mRNA in the presence of chemical substance/ (yeast gene YKL151C, ratio to control without chemical substance, 2 h culture): 1.7 | The level of expressed mRNA in the presence of chemical substance/ (yeast gene YKL153W, ratio to control without chemical substance, 2 h culture): 2.0 | The level of expressed mRNA in the presence of chemical substance/The level of expressed mRNA in the absence of chemical substance (yeast gene YKL165C): 1.1 | The level of expressed mRNA in the presence of chemical substance/The level of expressed mRNA in the absence of chemical substance (yeast gene YKL193C): 1.1 | The level of expressed mRNA in the presence of chemical substance/ (yeast gene YKL195W, ratio to control without chemical substance, 2 h culture): 0.4 | The level of expressed mRNA in the presence of chemical substance/in the absence of chemical substance (yeast gene YKR009C): 1.5 | The level of expressed mRNA in the presence of chemical substance/ (yeast gene YKR091W, ratio to control without chemical): 0.9 | The level of expressed mRNA in the presence of chemical substance/ (yeast gene YLR054C, ratio to control without chemical substance, 2 h culture): 0.4 | The level of expressed mRNA in the presence of chemical substance/The level of expressed mRNA in the absence of chemical substance (yeast gene YLR120C): 2.4 | The level of expressed mRNA in the presence of chemical substance/The level of expressed mRNA in the absence of chemical substance (yeast gene YLR136C): 0.6 | The level of expressed mRNA in the presence of chemical substance/ (yeast gene YLR149C, ratio to control without chemical substance, 2 h culture): 3.4 | The level of expressed mRNA in the presence of chemical substance/ (yeast gene YLR152C, ratio to control without chemical substance, 2 h culture): 1.1 | The level of expressed mRNA in the presence of chemical substance/The level of expressed mRNA in the absence of chemical substance (yeast gene YLR178C): 8.8 | The level of expressed mRNA in the presence of chemical substance/ (yeast gene YLR194C, ratio to control without chemical): 1.3 | The level of expressed mRNA in the presence of chemical substance/The level of expressed mRNA in the absence of chemical substance (yeast gene YLR250W): 1.0 | The level of expressed mRNA in the presence of chemical substance/ (yeast gene YLR324W, ratio to control without chemical substance, 2 h culture): 0.9 | The level of expressed mRNA in the presence of chemical substance/The level of expressed mRNA in the absence of chemical substance (yeast gene YLR327C): 14.4 | The level of expressed mRNA in the presence of chemical substance/ (yeast gene YLR350W, ratio to control without chemical substance, 2 h culture): 3.2 | The level of expressed mRNA in the presence of chemical substance/in the absence of chemical substance (yeast gene YLR351C): 1.3 | The level of expressed mRNA in the presence of chemical substance/The level of expressed mRNA in the absence of chemical substance (yeast gene YLR356W): 4.9 | The level of expressed mRNA in the presence of chemical substance/The level of expressed mRNA in the absence of chemical substance (yeast gene YLR362W): 1.0 | The level of expressed mRNA in the presence of chemical substance/in the absence of chemical substance (yeast gene YLR375W): 0.9 | The level of expressed mRNA in the presence of chemical substance/ (yeast gene YLR387C, ratio to control without chemical substance, 2 h culture): 0.8 | The level of expressed mRNA in the presence of chemical substance/The level of expressed mRNA in the absence of chemical substance (yeast gene YLR391W): 2.9 | The level of expressed mRNA in the presence of chemical substance/The level of expressed mRNA in the absence of chemical substance (yeast gene YLR429W): 0.6 | The level of expressed mRNA in the presence of chemical substance/ (yeast gene YLR460C, ratio to control without chemical substance, 2 h culture): 2.0 | The level of expressed mRNA in the presence of chemical substance/ (yeast gene YML117W, ratio to control without chemical substance, 2 h culture): 0.9 | The level of expressed mRNA in the presence of chemical substance/The level of expressed mRNA in the absence of chemical substance (yeast gene YMR004W): 1.3 | The level of expressed mRNA in the presence of chemical substance/ (yeast gene YMR009W, ratio to control without chemical substance, 2 h culture): 0.5 | The level of expressed mRNA in the presence of chemical substance/ (yeast gene YMR067C, ratio to control without chemical substance, 2 h culture): 1.1 | The level of expressed mRNA in the presence of chemical substance/ (yeast gene YMR090W, ratio to control without chemical substance, 2 h culture): 2.3 | The level of expressed mRNA in the presence of chemical substance/The level of expressed mRNA in the absence of chemical substance (yeast gene YMR094W): 1.3 | The level of expressed mRNA in the presence of chemical substance/ (yeast gene YMR095C, ratio to control without chemical): 1.6 | The level of expressed mRNA in the presence of chemical substance/ (yeast gene YMR097C, ratio to control without chemical substance, 2 h culture): 0.7 | The level of expressed mRNA in the presence of chemical substance/ (yeast gene YMR102C, ratio to control without chemical substance, 2 h culture): 1.1 | The level of expressed mRNA in the presence of chemical substance/The level of expressed mRNA in the absence of chemical substance (yeast gene YMR104C): 2.2 | The level of expressed mRNA in the presence of chemical substance/ (yeast gene YMR107W, ratio to control without chemical substance, 2 h culture): 1.7 | The level of expressed mRNA in the presence of chemical substance/ (yeast gene YMR180C, ratio to control without chemical substance, 2 h culture): 1.0 | The level of expressed mRNA in the presence of chemical substance/ (yeast gene YMR184W, ratio to control without chemical substance, 2 h culture): 1.0 | The level of expressed mRNA in the presence of chemical substance/ (yeast gene YMR191W, ratio to control without chemical substance, 2 h culture): 1.9 | The level of expressed mRNA in the presence of chemical substance/The level of expressed mRNA in the absence of chemical substance (yeast gene YMR219W): 1.0 | The level of expressed mRNA in the presence of chemical substance/The level of expressed mRNA in the absence of chemical substance (yeast gene YMR226C): 1.4 | The level of expressed mRNA in the presence of chemical substance/in the absence of chemical substance (yeast gene YMR267W): 0.7 | The level of expressed mRNA in the presence of chemical substance/The level of expressed mRNA in the absence of chemical substance (yeast gene YMR275C): 1.2 | The level of expressed mRNA in the presence of chemical substance/The level of expressed mRNA in the absence of chemical substance (yeast gene YMR276W): 1.5 | The level of expressed mRNA in the presence of chemical substance/in the absence of chemical substance (yeast gene YMR278W): 1.4 | The level of expressed mRNA in the presence of chemical substance/in the absence of chemical substance (yeast gene YMR293C): 1.6 | The level of expressed mRNA in the presence of chemical substance/ (yeast gene YMR295C, ratio to control without chemical substance, 2 h culture): 1.2 | The level of expressed mRNA in the presence of chemical substance/The level of expressed mRNA in the absence of chemical substance (yeast gene YMR314W): 0.9 | The level of expressed mRNA in the presence of chemical substance/ (yeast gene YMR316W, ratio to control without chemical substance, 2 h culture): 1.1 | The level of expressed mRNA in the presence of chemical substance/The level of expressed mRNA in the absence of chemical substance (yeast gene YNL006W): 1.3 | The level of expressed mRNA in the presence of chemical substance/The level of expressed mRNA in the absence of chemical substance (yeast gene YNL007C): 5.1 | The level of expressed mRNA in the presence of chemical substance/ (yeast gene YNL044W, ratio to control without chemical substance, 2 h culture): 2.3
